Assay results as given in article PMC8143291, “Cytotoxicity and Microbicidal Activity of Commonly Used Organic Solvents: A Comparative Study and Application to a Standardized Extract from Vaccinium macrocarpon” (Toxics, 2021).
Values joined by “and” are separate entries in the source; they are usually repeats but may differ in a detail not shown here. Identical values can stand only once.

Columns and labels:
[1] = system: Candida Albicans SAIMC 562; test: Broth microdilution MIC/MBC; format: cell-based; conditions: 24 h exposure; v/v; n = 3
Description: The bacterial strains used for AST of the solvents included: Staphylococcus aureus (ATCC 29213), Staphylococcus aureus—MRSA (NBIMCC 8327—resistant to methicillin and oxacillin, National Bulgarian Collection for Industrial Microorganisms and Cell Cultures, Sofia, Bulgaria), Streptococcus pyogenes (SAIMC 10535, Collection of the Stephan Angeloff Institute of Microbiology, Sofia, Bulgaria), Enterococcus faecalis (ATCC 29212), Escherichia coli (ATCC 35218), Pseudomonas aeruginosa (ATCC 27853), and Yersinia enterocolitica (IP864 O:3, Collection of Institut Pasteur, Paris, France). The selected strains are the most often investigated ones in the AST research studies in correspondence with the standard ISO 20776-1 Part 1: Reference method for testing the in vitro activity of antimicrobial agents against rapidly growing aerobic bacteria involved in infectious diseases. […] The strains S. aureus, MRSA, E. coli and E. faecalis were grown on Mueller–Hinton broth/agar (MHB/MHA); S. pyogenes, P. aeruginosa, Y. enterocolitica and C. albicans were grown on brain heart infusion (BHI) broth/agar; E. coli was also grown on Luria–Bertani broth/agar (LBB/LBA).
(§1) The minimum inhibitory concentration (MIC) for each solvent was estimated by the broth microdilution method (BMD) in 96-well microplates, following ISO 20776/1-2006 [3] and CLSI protocols. Briefly, a standardized bacterial inoculum was prepared from each bacterial species by suspending 3–4 colonies from a pure culture into 4 mL sterile saline. The turbidity of the inocula was adjusted to McFarland 0.5 (1.0 × 10^8 CFU/mL, λ = 600 nm), and 50 µL were resuspended in 10 mL of the appropriate culture medium for each strain. The bacterial inocula were added to microtiter trays containing equivalent volumes of medium loaded with the relevant solvent in concentrations varying from 0.025 to 25% volume fraction. The final volume of each sample was 100 µL/well. The plates were incubated at 37 °C for 24 h. The pure culture medium served as a negative control. Every MIC was evaluated visually as the lowest concentration without visible growth. […] MBC was defined as the lowest compound’s concentration reducing the colony growth of the initial bacterial inoculum by ≥ 99.9%.

[2] = system: Y. enterocolitica IP 864 O: 3; test: Broth microdilution MIC/MBC; format: cell-based, Yersinia enterocolitica; conditions: 24 h exposure; v/v; n = 3
Description: (§2) The bacterial strains used for AST of the solvents included: Staphylococcus aureus (ATCC 29213), Staphylococcus aureus—MRSA (NBIMCC 8327—resistant to methicillin and oxacillin, National Bulgarian Collection for Industrial Microorganisms and Cell Cultures, Sofia, Bulgaria), Streptococcus pyogenes (SAIMC 10535, Collection of the Stephan Angeloff Institute of Microbiology, Sofia, Bulgaria), Enterococcus faecalis (ATCC 29212), Escherichia coli (ATCC 35218), Pseudomonas aeruginosa (ATCC 27853), and Yersinia enterocolitica (IP864 O:3, Collection of Institut Pasteur, Paris, France). The selected strains are the most often investigated ones in the AST research studies in correspondence with the standard ISO 20776-1 Part 1: Reference method for testing the in vitro activity of antimicrobial agents against rapidly growing aerobic bacteria involved in infectious diseases. The antimycotic activity was tested on Candida albicans (CBS 562, Utrecht, The Netherlands). The strains S. aureus, MRSA, E. coli and E. faecalis were grown on Mueller–Hinton broth/agar (MHB/MHA); S. pyogenes, P. aeruginosa, Y. enterocolitica and C. albicans were grown on brain heart infusion (BHI) broth/agar; E. coli was also grown on Luria–Bertani broth/agar (LBB/LBA).
as §1

S. pyogenes SAIMC 10535 [3] = test: Dehydrogenase activity (DEHA) MTT test after BMD; format: cell-based, Streptococcus pyogenes; conditions: 24 h exposure; % against untreated control; ± SD; n = 3
Method: (§3) The cell dehydrogenase (DEHA, redox, metabolic) activity of all samples was measured at the end of the BMD assay, based on reducing the MTT dye to formazan by the membrane located bacterial enzyme NADH: ubiquinone reductase (H^+-translocation). The protocol of Wang et al. was applied after minor modifications. Briefly, each sample was incubated for 120 min at 37 °C with MTT at a final concentration of 0.5 mg/mL in the culture medium. The resulting non-soluble violet formazan crystals were dissolved with an equal volume of 2-propanol supplemented with 5% formic acid. The absorbance was measured at 550 nm against a blank solution containing the respective volumes of MHB and MTT.
(§4) The cell viability is presented as a percentage of the untreated control. At least four wells were seeded for every concentration. Three independent assays were performed (n = 3). […] The respiratory activity of the bacterial cultures was calculated as a percentage against the untreated control.

E. faecalis ATCC 29212 [4] = test: Broth microdilution MIC/MBC; format: cell-based, Enterococcus faecalis; conditions: 24 h exposure; v/v; n = 3
Description: as §2, §1

[5] = system: Candida Albicans SAIMC 562; test: Dehydrogenase activity (DEHA) MTT test after BMD; format: cell-based; conditions: 24 h exposure; % active cells against untreated control; ± SD; n = 3
Method: as §3
(§5) The IC50 values from the MTT assay were evaluated with a non-linear regression analysis (Curve fit, GraphPad Prizm 6.01 software, GraphPad Software Inc., San Diego, CA, USA) using sigmoidal concentration–response curves. The cell viability is presented as a percentage of the untreated control. […] The maximum tolerated concentration (MTC) for the cell lines was determined from three independent assays according to ISO 10993-5 as the maximum concentration at which at least 70% of the cells were viable (nonlin fit, range, GraphPad Prizm 6.01 software) GraphPad Software Inc., San Diego, CA, USA). […] The respiratory activity of the bacterial cultures was calculated as a percentage against the untreated control.

P. aeruginosa ATCC 27853 [6] = test: Broth microdilution MIC/MBC; format: cell-based, Pseudomonas aeruginosa; conditions: 24 h exposure; v/v; n = 3
Description: as §2, §1

S. pyogenes SAIMC 10535 [7] = test: Broth microdilution MIC/MBC; format: cell-based, Streptococcus pyogenes; conditions: 24 h exposure; v/v; n = 3
Description: as §2, §1

[8] = no reference given; cited from earlier work
E. coli ATCC 35218 [9] = test: Broth microdilution MIC/MBC; format: cell-based, Escherichia coli; conditions: 24 h exposure, v/v, n = 3
Description: as §2, §1

S. Aureus ATCC 29213 [10] = test: Broth microdilution MIC/MBC; format: cell-based, Staphylococcus aureus; conditions: 24 h exposure; v/v; n = 3
Description: as §2, §1

[11] = system: S. Aureus MRSA NBIMCC 8327; test: Broth microdilution MIC/MBC; format: cell-based, Staphylococcus aureus; conditions: 24 h exposure; v/v; n = 3
Description: as §2, §1

[12] = system: Y. enterocolitica IP 864 O: 3; test: Dehydrogenase activity (DEHA) MTT test after BMD; format: cell-based, Yersinia enterocolitica; conditions: 24 h exposure; % against untreated control; ± SD; n = 3
Method: as §3
The IC50 values from the MTT assay were evaluated with a non-linear regression analysis (Curve fit, GraphPad Prizm 6.01 software, GraphPad Software Inc., San Diego, CA, USA) using sigmoidal concentration–response curves. The cell viability is presented as a percentage of the untreated control. At least four wells were seeded for every concentration. Three independent assays were performed (n = 3). The maximum tolerated concentration (MTC) for the cell lines was determined from three independent assays according to ISO 10993-5 as the maximum concentration at which at least 70% of the cells were viable (nonlin fit, range, GraphPad Prizm 6.01 software) GraphPad Software Inc., San Diego, CA, USA). To compare the MTC values of the solvents for each cell line, the ordinary One-way ANOVA statistical analysis based on Tukey’s multiple comparisons test with a single pooled variance (GraphPad Prizm 6.01 software) GraphPad Software Inc., San Diego, CA, USA) was utilized, and p ≤ 0.05 was set as a significance level. The respiratory activity of the bacterial cultures was calculated as a percentage against the untreated control.

S. Aureus ATCC 29213 [13] = test: Dehydrogenase activity (DEHA) MTT test after BMD; format: cell-based, Staphylococcus aureus; conditions: 24 h exposure; % against untreated control; ± SD; n = 3
Method: as §3, §4

E. coli ATCC 35218 [14] = test: Dehydrogenase activity (DEHA) MTT test after BMD; format: cell-based, Escherichia coli; conditions: in MHB; 24 h exposure; % against untreated control; ± SD; n = 3
Method: as §3, §5

E. faecalis ATCC 29212 [15] = test: Dehydrogenase activity (DEHA) MTT test after BMD; format: cell-based, Enterococcus faecalis; conditions: 24 h exposure; % against untreated control; ± SD; n = 3
Method: as §3, §4

P. aeruginosa ATCC 27853 [16] = test: Dehydrogenase activity (DEHA) MTT test after BMD; format: cell-based, Pseudomonas aeruginosa; conditions: 24 h exposure; % against untreated control; ± SD; n = 3
Method: as §3, §4

S. epidermidis = system: S. epidermidis; design: method as in doi:10.5580/b43; conditions: in the presence of 6% solvent; cited from earlier work
[17] = system: breast cancer, mouse macrophage and human umbilical vein endothelial cells; design: method as in doi:10.17795/ajmb-33453; conditions: cited from earlier work
[18] = system: Chinese hamster liver cell line; conditions: cited from earlier work

| Compound | MBC [1] [%] | MIC [1] [%] | MBC [2] [%] | MIC [2] [%] | DEHA (dehydrogenase activity) (S. pyogenes SAIMC 10535 [3]) [%] | MBC (E. faecalis ATCC 29212 [4]) [%] | MIC (E. faecalis ATCC 29212 [4]) [%] | MBC (P. aeruginosa ATCC 27853 [6]) [%] | MIC (P. aeruginosa ATCC 27853 [6]) [%] | MBC (S. pyogenes SAIMC 10535 [7]) [%] | MIC (S. pyogenes SAIMC 10535 [7]) [%] | Experimental logP [8] | MBC (E. coli ATCC 35218 [9]; in LBB) [%] | MIC (E. coli ATCC 35218 [9]; in LBB) [%] | MBC (E. coli ATCC 35218 [9]; in MHB) [%] | MIC (E. coli ATCC 35218 [9]; in MHB) [%] | MBC (S. Aureus ATCC 29213 [10]) [%] | MIC (S. Aureus ATCC 29213 [10]) [%] | MBC [11] [%] | MIC [11] [%] | also measured |
| --- | --- | --- | --- | --- | --- | --- | --- | --- | --- | --- | --- | --- | --- | --- | --- | --- | --- | --- | --- | --- | --- |
| COCCOC [DME, 1,2-dimethoxyethane] | 25 | 12.5 | 6.25 | 3.125 | 31.32 ± 0.05 | 12.5 | 12.5 | 12.5 | 12.5 | >25 | 6.25 | −0.21 | 6.25 | 3.125 | 12.5 | 12.5 | 12.5 | 6.25 | 3.125 | 3.125 | DEHA (dehydrogenase activity) [5]: 31.23% and 31.23 ± 0.01%; DEHA (dehydrogenase activity) [12]: 49.04 ± 0.005%; DEHA (dehydrogenase activity) (S. Aureus ATCC 29213 [13]): 12.54 ± 0.03% |
| COCCO [MEtOH, 2-methoxyethanol] | 12.5 | 6.25 | 25 | 12.5 | 28.02 ± 0.02 | >25 | 12.5 | 25 | 6.25 | >25 | 12.5 | −0.77 | 12.5 | 12.5 | 25 | 12.5 | >25 | 25 | 25 | 25 | DEHA (dehydrogenase activity) (E. coli ATCC 35218 [14]): 5.86 ± 0.005%; DEHA (dehydrogenase activity) (E. faecalis ATCC 29212 [15]): 25.60 ± 0.04%; DEHA (dehydrogenase activity) [5]: 77.41 ± 0.03%; DEHA (dehydrogenase activity) [12]: 11.76 ± 0.004%; DEHA (dehydrogenase activity) (P. aeruginosa ATCC 27853 [16]): 20.23 ± 0.06%; DEHA (dehydrogenase activity) (S. Aureus ATCC 29213 [13]): 10.27 ± 0.01% |
| CO [MeOH, methanol] | >25 | >25 | >25 | >25 |  | >25 | >25 | >25 | >25 | >25 | >25 | −0.77 | >25 | >25 | >25 | >25 | >25 | >25 | >25 | >25 | survival (S. epidermidis): 26% |
| CC(C)=O [acetone] |  |  |  |  |  |  |  |  |  |  |  |  |  |  |  |  |  |  |  |  | maximum tolerated concentration (MTC) / applicable concentration [17]: up to 0.5 % v/v |
| PEG-200 |  |  |  |  |  |  |  |  |  |  |  |  |  |  |  |  |  |  |  |  | clastogenic concentrations [18]: 5 to 7 mM |
